In one test the target is T1, Carbonic anhydrase 4 (Bos taurus, UniProt Q95323).
T1 sequence (Q95323 whole entry): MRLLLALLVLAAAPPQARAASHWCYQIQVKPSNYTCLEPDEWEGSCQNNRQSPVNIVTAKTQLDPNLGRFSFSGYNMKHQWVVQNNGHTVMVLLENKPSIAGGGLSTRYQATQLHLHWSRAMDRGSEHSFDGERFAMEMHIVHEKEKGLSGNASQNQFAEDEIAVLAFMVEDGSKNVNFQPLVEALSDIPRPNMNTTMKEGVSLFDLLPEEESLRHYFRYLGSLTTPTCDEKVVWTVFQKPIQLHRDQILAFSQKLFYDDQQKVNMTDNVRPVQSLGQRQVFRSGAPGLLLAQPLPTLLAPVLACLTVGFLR

For the next test, the target named is Carbonic anhydrase 1 (Homo sapiens, UniProt P00915).

Experimental findings from ChEMBL document CHEMBL1135903 (J Med Chem, 2002) are described below.

pKi: −log10 of the molar value.

Sequence of Carbonic anhydrase 1 (P00915 whole entry): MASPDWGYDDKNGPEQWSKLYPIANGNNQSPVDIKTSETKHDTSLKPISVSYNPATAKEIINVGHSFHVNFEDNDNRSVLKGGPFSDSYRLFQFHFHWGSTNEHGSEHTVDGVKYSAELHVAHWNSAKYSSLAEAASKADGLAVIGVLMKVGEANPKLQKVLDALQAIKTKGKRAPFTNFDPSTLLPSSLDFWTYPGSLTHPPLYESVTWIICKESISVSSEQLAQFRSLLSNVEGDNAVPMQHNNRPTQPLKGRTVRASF
Description for Carbonic anhydrase 1: Inhibitory activity against Human carbonic anhydrase I
Description for Carbonic anhydrase 4: Inhibitory activity against bovine carbonic anhydrase IV

The pKi is −log10 of the Ki, conventionally taken in molar units. For the compound `NS(=O)(=O)c1ccc(CNC(=O)CN(CCOCCOCCN(CC(=O)O)CC(=O)NCc2ccc(S(N)(=O)=O)cc2)CC(=O)O)cc1`, the figures for the pKi on Carbonic anhydrase 4 and on Carbonic anhydrase 1 were 7.41 and 6.46, respectively.

For the compound `NS(=O)(=O)c1ccc(CCNC(=O)CN(CC(=O)O)CC(=O)O)cc1`, the values for the pKi at Carbonic anhydrase 4 and on Carbonic anhydrase 1 were 6.62 and 5.48, respectively.

In the case of `NS(=O)(=O)c1ccc(NNC(=O)CN(CCN(CC(=O)O)CC(=O)NNc2ccc(S(N)(=O)=O)cc2)CC(=O)O)cc1`, the pKi on Carbonic anhydrase 4 was 6.29; on Carbonic anhydrase 1, 4.90.

On to `NS(=O)(=O)c1ccc(CCNC(=O)CN(CCOCCOCCN(CC(=O)O)CC(=O)NCCc2ccc(S(N)(=O)=O)cc2)CC(=O)O)cc1` [listing 1 of 2 here], for which the values for the pKi at Carbonic anhydrase 4 and on Carbonic anhydrase 1 were 7.92 and 7.52, respectively.

`NS(=O)(=O)c1nc2ccc(OCCOC(=O)CN(CCN(CC(=O)O)CC(=O)OCCOc3ccc4nc(S(N)(=O)=O)sc4c3)CC(=O)O)cc2s1`: the pKi at Carbonic anhydrase 4 is 8.22; on Carbonic anhydrase 1, 7.60.

Turning to `NS(=O)(=O)c1nc2ccc(OCCOC(=O)CNCC(=O)O)cc2s1`, the figures for the negative logarithm of the Ki (pKi) on Carbonic anhydrase 4 and at Carbonic anhydrase 1 were 7.92 and 7.34, respectively.

In the case of `NS(=O)(=O)c1ccccc1NC(=O)CN(CCOCCOCCN(CC(=O)O)CC(=O)O)CC(=O)O`, the pKi at Carbonic anhydrase 4 is 6.26; at Carbonic anhydrase 1, 5.05.

As to `NS(=O)(=O)c1ccc(CCNC(=O)CN(CCOCCOCCN(CC(=O)O)CC(=O)NCCc2ccc(S(N)(=O)=O)cc2)CC(=O)O)cc1` [listing 2 of 2 here], the figures for the pKi on Carbonic anhydrase 4 and on Carbonic anhydrase 1 were 7.70 and 6.80, respectively.

For the compound `Cn1nc(S(N)(=O)=O)s/c1=N/C(=O)CN(CCN(CCN(CC(=O)O)CC(=O)/N=c1/sc(S(N)(=O)=O)nn1C)CC(=O)O)CC(=O)O`, the pKi at Carbonic anhydrase 4 is 8.30; on Carbonic anhydrase 1 it was 7.37.

As to `NS(=O)(=O)c1nnc(NC(=O)CCNC(=O)CNCCNCC(=O)O)s1`, the pKi on Carbonic anhydrase 4 is 7.41; on Carbonic anhydrase 1 it was 6.62.

Take `NS(=O)(=O)c1ccc(NC(=O)CNCCNCC(=O)O)c(Br)c1`: the pKi is 7.27 at Carbonic anhydrase 4 and 6.42 on Carbonic anhydrase 1.

As for `NS(=O)(=O)c1ccccc1NC(=O)CN(CCN(CC(=O)O)CC(=O)O)CC(=O)O`, the values for the pKi on Carbonic anhydrase 4 and at Carbonic anhydrase 1 were 6.10 and 5.04, respectively.

Turning to `NS(=O)(=O)c1cc(S(N)(=O)=O)c(NC(=O)CNCCNCC(=O)O)c(Cl)c1Cl`, the pKi on Carbonic anhydrase 4 is 6.96; at Carbonic anhydrase 1 it was 6.54.

Consider `NS(=O)(=O)c1ccc(COC(=O)CN(CCN(CC(=O)O)c2ccccc2O)c2ccccc2O)cc1`, for which the negative logarithm of the Ki (pKi) is 6.49 at Carbonic anhydrase 4 and 6.02 at Carbonic anhydrase 1.

On to `NS(=O)(=O)c1ccc(NC(=O)CNCC(=O)O)cc1`, for which the pKi on Carbonic anhydrase 4 was 6.35; at Carbonic anhydrase 1, 4.67.

For `NS(=O)(=O)c1ccc(COC(=O)CN(CCN(CC(=O)O)CC(=O)OCc2ccc(S(N)(=O)=O)cc2)CC(=O)O)cc1`, the pKi was 6.70 on Carbonic anhydrase 4 and 6.34 at Carbonic anhydrase 1.

Regarding `NS(=O)(=O)c1cccc(NC(=O)CN(CCN(CC(=O)O)c2ccccc2O)c2ccccc2O)c1`, the negative logarithm of the Ki (pKi) at Carbonic anhydrase 4 is 6.07; at Carbonic anhydrase 1, 5.00.

`NS(=O)(=O)c1nc2ccc(OC(=O)CN(CCOCCOCCN(CC(=O)O)CC(=O)Oc3ccc4nc(S(N)(=O)=O)sc4c3)CC(=O)O)cc2s1`: the pKi was 8.30 at Carbonic anhydrase 4 and 7.68 at Carbonic anhydrase 1.

For `NS(=O)(=O)c1ccc(COC(=O)CN(CCOCCOCCN(CC(=O)O)CC(=O)OCc2ccc(S(N)(=O)=O)cc2)CC(=O)O)cc1`, the negative-log Ki (pKi) at Carbonic anhydrase 4 was 6.82; at Carbonic anhydrase 1, 6.47.

Regarding `NS(=O)(=O)c1cc(S(N)(=O)=O)c(NC(=O)CNCC(=O)O)cc1Cl`, the pKi at Carbonic anhydrase 4 was 6.84; at Carbonic anhydrase 1, 6.40.

As for `NS(=O)(=O)c1ccc(NC(=O)CN(CCN(CC(=O)O)c2ccccc2O)c2ccccc2O)c(I)c1`, the pKi at Carbonic anhydrase 4 is 7.05; on Carbonic anhydrase 1, 6.66.

Turning to `NS(=O)(=O)c1ccccc1NC(=O)CN(CC(=O)O)CC(=O)O`, the pKi was 5.92 on Carbonic anhydrase 4 and 4.59 on Carbonic anhydrase 1.

With `NS(=O)(=O)c1nnc(NC(=O)CN(CCOCCOCCN(CC(=O)O)CC(=O)Nc2nnc(S(N)(=O)=O)s2)CC(=O)O)s1`, the pKi was 8.10 on Carbonic anhydrase 4 and 7.57 at Carbonic anhydrase 1.

Turning to `NS(=O)(=O)c1nc2ccc(OC(=O)CN(CCN(CC(=O)O)CC(=O)O)CC(=O)O)cc2s1`, the negative logarithm of the Ki (pKi) was 8.00 on Carbonic anhydrase 4 and 7.37 on Carbonic anhydrase 1.

Turning to `NS(=O)(=O)c1nc2ccc(OC(=O)CN(CCN(CC(=O)O)CC(=O)Oc3ccc4nc(S(N)(=O)=O)sc4c3)CC(=O)O)cc2s1`, the pKi is 8.10 at Carbonic anhydrase 4 and 7.43 on Carbonic anhydrase 1.

In the case of `NS(=O)(=O)c1nnc(NC(=O)CN(CCN(CC(=O)O)CC(=O)O)CC(=O)O)s1`, the pKi on Carbonic anhydrase 4 was 7.43; on Carbonic anhydrase 1, 6.65.

For `NS(=O)(=O)c1nnc(NC(=O)CN(CC(=O)O)CC(=O)O)s1`, the pKi at Carbonic anhydrase 4 was 6.62; on Carbonic anhydrase 1, 6.39.

With `NS(=O)(=O)c1cccc(NC(=O)CN(CCN(CC(=O)O)CC(=O)O)CC(=O)O)c1`, the values for the negative logarithm of the Ki (pKi) at Carbonic anhydrase 4 and on Carbonic anhydrase 1 were 6.12 and 5.00, respectively.

Turning to `NS(=O)(=O)c1ccc(CCOC(=O)CN(CCN(CC(=O)O)c2ccccc2O)c2ccccc2O)cc1`, the pKi is 6.52 on Carbonic anhydrase 4 and 6.12 on Carbonic anhydrase 1.

Consider `NS(=O)(=O)c1ccc(NC(=O)CN(CCN(CC(=O)O)CC(=O)Nc2ccc(S(N)(=O)=O)cc2F)CC(=O)O)c(F)c1`, for which the pKi at Carbonic anhydrase 4 is 7.46; at Carbonic anhydrase 1, 6.62.

`NS(=O)(=O)c1nnc(NC(=O)CCNC(=O)CN(CCN(CC(=O)O)CC(=O)O)CC(=O)O)s1`: the pKi on Carbonic anhydrase 4 was 7.64; at Carbonic anhydrase 1 it was 6.70.

In the case of `NS(=O)(=O)c1ccc(CCNC(=O)CN(CCN(CC(=O)O)CC(=O)O)CC(=O)O)cc1`, the pKi is 7.12 at Carbonic anhydrase 4 and 6.19 on Carbonic anhydrase 1.

Take `NS(=O)(=O)c1ccc(NC(=O)CN(CCN(CC(=O)O)CC(=O)O)CC(=O)O)c(F)c1`: the pKi on Carbonic anhydrase 4 is 7.40; on Carbonic anhydrase 1, 6.44.

In the case of `NS(=O)(=O)c1cc(S(N)(=O)=O)c(NC(=O)CNCCNCC(=O)O)cc1Cl`, the pKi on Carbonic anhydrase 4 was 6.87; on Carbonic anhydrase 1, 6.60.

With `NS(=O)(=O)c1ccc(NC(=O)CN(CCOCCOCCN(CC(=O)O)CC(=O)O)CC(=O)O)c(F)c1`, the values for the pKi on Carbonic anhydrase 4 and on Carbonic anhydrase 1 were 7.51 and 6.68, respectively.

For `NS(=O)(=O)c1cccc(NC(=O)CNCC(=O)O)c1`, the figures for the pKi at Carbonic anhydrase 4 and on Carbonic anhydrase 1 were 5.82 and 4.64, respectively.

Take `NS(=O)(=O)c1nnc(NC(=O)CCNC(=O)CN(CCOCCOCCN(CC(=O)O)CC(=O)O)CC(=O)O)s1`: the results for the pKi at Carbonic anhydrase 4 and at Carbonic anhydrase 1 were 7.89 and 6.92, respectively.

As for `NS(=O)(=O)c1ccc(CNC(=O)CNCC(=O)O)cc1`, the results for the pKi on Carbonic anhydrase 4 and on Carbonic anhydrase 1 were 6.55 and 5.44, respectively.

As for `NS(=O)(=O)c1ccc(CNC(=O)CN(CC(=O)O)CC(=O)O)cc1`, the negative-log Ki (pKi) is 6.59 on Carbonic anhydrase 4 and 5.46 at Carbonic anhydrase 1.

Regarding `NS(=O)(=O)c1ccc(NC(=O)CN(CC(=O)O)CC(=O)O)c(Br)c1`, the pKi is 7.28 on Carbonic anhydrase 4 and 6.21 on Carbonic anhydrase 1.

Take `NS(=O)(=O)c1cc(S(N)(=O)=O)c(NC(=O)CNCC(=O)O)c(Cl)c1Cl`: the figures for the pKi at Carbonic anhydrase 4 and at Carbonic anhydrase 1 were 6.97 and 6.39, respectively.

Take `NS(=O)(=O)c1nc2ccc(OCCOC(=O)CNCCNCC(=O)O)cc2s1`: the pKi is 8.05 at Carbonic anhydrase 4 and 7.37 at Carbonic anhydrase 1.

On to `NS(=O)(=O)c1ccc(NNC(=O)CN(CC(=O)O)CC(=O)O)cc1`, for which the pKi at Carbonic anhydrase 4 is 6.03; at Carbonic anhydrase 1, 4.52.

`NS(=O)(=O)c1ccccc1NC(=O)CNCC(=O)O`: the pKi was 5.91 on Carbonic anhydrase 4 and 4.57 on Carbonic anhydrase 1.

With `NS(=O)(=O)c1cc(S(N)(=O)=O)c(NC(=O)CN(CC(=O)O)CC(=O)O)cc1Cl`, the negative-log Ki (pKi) at Carbonic anhydrase 4 was 6.83; on Carbonic anhydrase 1, 6.52.

For the compound `NS(=O)(=O)c1ccc(NNC(=O)CN(CCN(CC(=O)O)CC(=O)O)CC(=O)O)cc1`, the figures for the pKi at Carbonic anhydrase 4 and on Carbonic anhydrase 1 were 6.12 and 4.80, respectively.

With `NS(=O)(=O)c1ccc(NC(=O)CN(CCOCCOCCN(CC(=O)O)CC(=O)O)CC(=O)O)cc1`, the pKi is 6.77 on Carbonic anhydrase 4 and 5.40 on Carbonic anhydrase 1.

Turning to `NS(=O)(=O)c1cc(S(N)(=O)=O)c(NC(=O)CN(CCN(CC(=O)O)CC(=O)O)CC(=O)O)cc1Cl`, the pKi at Carbonic anhydrase 4 was 6.98; on Carbonic anhydrase 1, 6.68.

With `NS(=O)(=O)c1ccc(CCOC(=O)CNCC(=O)O)cc1`, the results for the pKi on Carbonic anhydrase 4 and on Carbonic anhydrase 1 were 6.47 and 5.92, respectively.

Consider `NS(=O)(=O)c1ccc(NC(=O)CN(CCOCCOCCN(CC(=O)O)CC(=O)Nc2ccc(S(N)(=O)=O)cc2)CC(=O)O)cc1`, for which the pKi is 6.82 at Carbonic anhydrase 4 and 5.42 at Carbonic anhydrase 1.

Turning to `NS(=O)(=O)c1ccc(NNC(=O)CN(CCN(CC(=O)O)c2ccccc2O)c2ccccc2O)cc1`, the results for the pKi on Carbonic anhydrase 4 and on Carbonic anhydrase 1 were 6.08 and 4.68, respectively.

Turning to `NS(=O)(=O)c1ccc(NC(=O)CN(CCOCCOCCN(CC(=O)O)CC(=O)O)CC(=O)O)c(Cl)c1`, the pKi on Carbonic anhydrase 4 is 7.52; at Carbonic anhydrase 1 it was 6.64.

`NS(=O)(=O)c1ccc(CCNC(=O)CN(CCOCCOCCN(CC(=O)O)CC(=O)O)CC(=O)O)cc1`: the results for the negative-log Ki (pKi) at Carbonic anhydrase 4 and on Carbonic anhydrase 1 were 7.49 and 6.54, respectively.

In the case of `NS(=O)(=O)c1ccc(NC(=O)CN(CCOCCOCCN(CC(=O)O)CC(=O)O)CC(=O)O)c(I)c1`, the pKi is 7.62 at Carbonic anhydrase 4 and 7.12 at Carbonic anhydrase 1.

As to `NS(=O)(=O)c1nc2ccc(OCCOC(=O)CN(CCOCCOCCN(CC(=O)O)CC(=O)O)CC(=O)O)cc2s1`, the negative logarithm of the Ki (pKi) on Carbonic anhydrase 4 was 8.22; on Carbonic anhydrase 1, 7.52.

Take `NS(=O)(=O)c1cc(S(N)(=O)=O)c(NC(=O)CN(CC(=O)O)CC(=O)O)c(Cl)c1Cl`: the pKi is 7.00 at Carbonic anhydrase 4 and 6.46 at Carbonic anhydrase 1.

Take `NS(=O)(=O)c1nc2ccc(NC(=O)CNCC(=O)O)cc2s1`: the pKi was 7.85 on Carbonic anhydrase 4 and 7.19 on Carbonic anhydrase 1.

For the compound `NS(=O)(=O)c1ccc(CCNC(=O)CNCC(=O)O)cc1`, the pKi was 6.59 at Carbonic anhydrase 4 and 5.46 at Carbonic anhydrase 1.

For `NS(=O)(=O)c1ccc(NC(=O)CN(CC(=O)O)CC(=O)O)c(I)c1`, the pKi on Carbonic anhydrase 4 is 6.96; on Carbonic anhydrase 1, 6.29.
